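In this assay, cells in 96-well plates receive the compound at five concentrations for 48 hours. Endpoints are linearly interpolated between the surrounding concentrations. GI50 is the concentration that inhibits growth by half. TGI denotes the concentration required for complete inhibition of growth.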
Tests used:
Experiment in all cases: NCI tumour cell line growth inhibition, 48 h
HCT-15 colon = tested on: HCT-15 colon
NCI-H23 lung = tested on: NCI-H23 lung
SR leukemia = tested on: SR leukemia
A549 NSCLC = tested on: A549 NSCLC
ACHN renal = tested on: ACHN renal
M14 melanoma = tested on: M14 melanoma
CCRF-CEM leukemia = tested on: CCRF-CEM leukemia
SF-295 CNS = tested on: SF-295 CNS
NCI-H522 lung = tested on: NCI-H522 lung
SF-268 CNS = tested on: SF-268 CNS
SK-MEL-5 melanoma = tested on: SK-MEL-5 melanoma
K-562 leukemia = tested on: K-562 leukemia
SF-539 CNS = tested on: SF-539 CNS
HOP-92 NSCLC = tested on: HOP-92 NSCLC
NCI-H460 lung = tested on: NCI-H460 lung
UACC-257 melanoma = tested on: UACC-257 melanoma
HCC-2998 colon = tested on: HCC-2998 colon
BT-549 breast = tested on: BT-549 breast
SK-OV-3 ovarian = tested on: SK-OV-3 ovarian
RPMI-8226 leukemia = tested on: RPMI-8226 leukemia
IGROV1 ovarian = tested on: IGROV1 ovarian
TK-10 renal = tested on: TK-10 renal
NCI-H226 lung = tested on: NCI-H226 lung
OVCAR-4 ovarian = tested on: OVCAR-4 ovarian
SW-620 colon = tested on: SW-620 colon
OVCAR-5 ovarian = tested on: OVCAR-5 ovarian
MOLT-4 leukemia = tested on: MOLT-4 leukemia
OVCAR-3 ovarian = tested on: OVCAR-3 ovarian
CAKI-1 renal = tested on: CAKI-1 renal
HCT-116 colon = tested on: HCT-116 colon
HOP-62 NSCLC = tested on: HOP-62 NSCLC
UO-31 renal = tested on: UO-31 renal
LOX IMVI melanoma = tested on: LOX IMVI melanoma
HT29 colon = tested on: HT29 colon
PC-3 prostate = tested on: PC-3 prostate
SNB-19 CNS = tested on: SNB-19 CNS
A498 renal = tested on: A498 renal
786-0 renal = tested on: 786-0 renal
RXF 393 renal = tested on: RXF 393 renal
MCF7 breast = tested on: MCF7 breast
OVCAR-8 ovarian = tested on: OVCAR-8 ovarian
SN12C renal = tested on: SN12C renal
NCI/ADR-RES ovarian = tested on: NCI/ADR-RES ovarian
UACC-62 melanoma = tested on: UACC-62 melanoma
EKVX NSCLC = tested on: EKVX NSCLC
COLO 205 colon = tested on: COLO 205 colon
HS 578T breast = tested on: HS 578T breast
DU-145 prostate = tested on: DU-145 prostate
MDA-MB-231 breast = tested on: MDA-MB-231 breast
U251 CNS = tested on: U251 CNS
SK-MEL-28 melanoma = tested on: SK-MEL-28 melanoma
HL-60(TB) leukemia = tested on: HL-60(TB) leukemia
MALME-3M melanoma = tested on: MALME-3M melanoma
SNB-75 CNS = tested on: SNB-75 CNS

Q: What does the source list for `COc1ccc(-c2oc3cc(O)cc(O)c3c(=O)c2OC)cc1O`?
A: GI50 (HCT-15 colon): 0.749 µM; TGI (HCT-15 colon): > 16.5 µM; GI50 (NCI-H23 lung): 0.945 µM; TGI (NCI-H23 lung): > 16.5 µM; GI50 (SR leukemia): 0.627 µM; TGI (SR leukemia): > 16.5 µM; GI50 (A549 NSCLC): 6.27 µM; TGI (A549 NSCLC): > 16.5 µM; GI50 (ACHN renal): 1.25 µM; TGI (ACHN renal): > 16.5 µM; GI50 (M14 melanoma): 0.509 µM; TGI (M14 melanoma): > 16.5 µM; GI50 (CCRF-CEM leukemia): 0.853 µM; TGI (CCRF-CEM leukemia): > 16.5 µM; GI50 (SF-295 CNS): 2.3 µM; TGI (SF-295 CNS): 8.66 µM; GI50 (NCI-H522 lung): 0.446 µM; TGI (NCI-H522 lung): 1.43 µM; GI50 (SF-268 CNS): 1.4 µM; TGI (SF-268 CNS): > 16.5 µM; GI50 (SK-MEL-5 melanoma): 0.724 µM; TGI (SK-MEL-5 melanoma): > 16.5 µM; GI50 (K-562 leukemia): 0.613 µM; TGI (K-562 leukemia): > 16.5 µM; GI50 (SF-539 CNS): 0.495 µM; TGI (SF-539 CNS): 1.72 µM; GI50 (HOP-92 NSCLC): 0.855 µM; TGI (HOP-92 NSCLC): > 16.5 µM; GI50 (NCI-H460 lung): 0.663 µM; TGI (NCI-H460 lung): > 16.5 µM; GI50 (UACC-257 melanoma): > 16.5 µM; TGI (UACC-257 melanoma): > 16.5 µM; GI50 (HCC-2998 colon): 4.63 µM; TGI (HCC-2998 colon): > 16.5 µM; GI50 (BT-549 breast): 0.85 µM; TGI (BT-549 breast): > 16.5 µM; GI50 (SK-OV-3 ovarian): 1.52 µM; TGI (SK-OV-3 ovarian): > 16.5 µM; GI50 (RPMI-8226 leukemia): 0.726 µM; TGI (RPMI-8226 leukemia): > 16.5 µM; GI50 (IGROV1 ovarian): 4.16 µM; TGI (IGROV1 ovarian): > 16.5 µM; GI50 (TK-10 renal): 7.75 µM; TGI (TK-10 renal): > 16.5 µM; GI50 (NCI-H226 lung): > 16.5 µM; TGI (NCI-H226 lung): > 16.5 µM; GI50 (OVCAR-4 ovarian): 3.16 µM; TGI (OVCAR-4 ovarian): > 16.5 µM; GI50 (SW-620 colon): 0.665 µM; TGI (SW-620 colon): > 16.5 µM; GI50 (OVCAR-5 ovarian): 8.69 µM; TGI (OVCAR-5 ovarian): > 16.5 µM; GI50 (MOLT-4 leukemia): 0.743 µM; TGI (MOLT-4 leukemia): > 16.5 µM; GI50 (OVCAR-3 ovarian): 0.49 µM; TGI (OVCAR-3 ovarian): 2.62 µM; GI50 (CAKI-1 renal): 3.26 µM; TGI (CAKI-1 renal): > 16.5 µM; GI50 (HCT-116 colon): 0.646 µM; TGI (HCT-116 colon): > 16.5 µM; GI50 (HOP-62 NSCLC): 0.814 µM; TGI (HOP-62 NSCLC): > 16.5 µM; GI50 (UO-31 renal): 1.86 µM; TGI (UO-31 renal): > 16.5 µM; GI50 (LOX IMVI melanoma): 1.02 µM; TGI (LOX IMVI melanoma): > 16.5 µM; GI50 (HT29 colon): 5.83 µM; TGI (HT29 colon): > 16.5 µM; GI50 (PC-3 prostate): 2.74 µM; TGI (PC-3 prostate): > 16.5 µM; GI50 (SNB-19 CNS): 1.2 µM; TGI (SNB-19 CNS): > 16.5 µM; GI50 (A498 renal): 3.5 µM; TGI (A498 renal): 14.6 µM; GI50 (786-0 renal): 4.87 µM; TGI (786-0 renal): > 16.5 µM; GI50 (RXF 393 renal): 1.21 µM; TGI (RXF 393 renal): 5.99 µM; GI50 (MCF7 breast): 0.762 µM; TGI (MCF7 breast): > 16.5 µM; GI50 (OVCAR-8 ovarian): 1.03 µM; TGI (OVCAR-8 ovarian): > 16.5 µM; GI50 (SN12C renal): 4.25 µM; TGI (SN12C renal): > 16.5 µM; GI50 (NCI/ADR-RES ovarian): 0.583 µM; TGI (NCI/ADR-RES ovarian): 6.84 µM; GI50 (UACC-62 melanoma): 0.88 µM; TGI (UACC-62 melanoma): > 16.5 µM; GI50 (EKVX NSCLC): 6.42 µM; TGI (EKVX NSCLC): > 16.5 µM; GI50 (COLO 205 colon): > 16.5 µM; TGI (COLO 205 colon): > 16.5 µM; GI50 (HS 578T breast): 0.762 µM; TGI (HS 578T breast): > 16.5 µM; GI50 (DU-145 prostate): 1.1 µM; TGI (DU-145 prostate): > 16.5 µM; GI50 (MDA-MB-231 breast): 1.22 µM; TGI (MDA-MB-231 breast): > 16.5 µM; GI50 (U251 CNS): 0.631 µM; TGI (U251 CNS): 6.05 µM; GI50 (SK-MEL-28 melanoma): 1.12 µM; TGI (SK-MEL-28 melanoma): > 16.5 µM; GI50 (HL-60(TB) leukemia): 0.445 µM; TGI (HL-60(TB) leukemia): 1.1 µM; GI50 (MALME-3M melanoma): > 16.5 µM; TGI (MALME-3M melanoma): > 16.5 µM; GI50 (SNB-75 CNS): 0.406 µM; TGI (SNB-75 CNS): 3.45 µM
